According to patent US9375409B2, “Use of polyunsaturated ketones for the treatment of psoriasis” (Avexxin AS, priority 2002, dated 2016):
Where two headings read alike, the source gives them in different places.

Tests used:
HaCaT cells = assay: MTT assay (toxicity); format: cell-based, human
Protocol: Confluent cells were pretreated with inhibitors in serum free medium for 1 hour, and then treated with stimulating agent for 1 hour. Conversion of substrate [3-(4, 5-dimethylthiazol-2-yl)-2, 5-diphenyl tetrazolium bromide] was measured as optical density at 580 nm after 4 hours according to Mosmann [Mosmann T, J. Immunol. Methods 65, 55-63, 1983]. For each concentration of inhibitor nine parallels were measured.

[1] = molecular target: recombinant human IV PLA2 (Homo sapiens, UniProt P47712); assay: biochemical; conditions: for inhibition at 5 µM: read-out: inhibition of IV PLA2 enzyme activity
recombinant human IV PLA2, sequence (P47712 whole entry): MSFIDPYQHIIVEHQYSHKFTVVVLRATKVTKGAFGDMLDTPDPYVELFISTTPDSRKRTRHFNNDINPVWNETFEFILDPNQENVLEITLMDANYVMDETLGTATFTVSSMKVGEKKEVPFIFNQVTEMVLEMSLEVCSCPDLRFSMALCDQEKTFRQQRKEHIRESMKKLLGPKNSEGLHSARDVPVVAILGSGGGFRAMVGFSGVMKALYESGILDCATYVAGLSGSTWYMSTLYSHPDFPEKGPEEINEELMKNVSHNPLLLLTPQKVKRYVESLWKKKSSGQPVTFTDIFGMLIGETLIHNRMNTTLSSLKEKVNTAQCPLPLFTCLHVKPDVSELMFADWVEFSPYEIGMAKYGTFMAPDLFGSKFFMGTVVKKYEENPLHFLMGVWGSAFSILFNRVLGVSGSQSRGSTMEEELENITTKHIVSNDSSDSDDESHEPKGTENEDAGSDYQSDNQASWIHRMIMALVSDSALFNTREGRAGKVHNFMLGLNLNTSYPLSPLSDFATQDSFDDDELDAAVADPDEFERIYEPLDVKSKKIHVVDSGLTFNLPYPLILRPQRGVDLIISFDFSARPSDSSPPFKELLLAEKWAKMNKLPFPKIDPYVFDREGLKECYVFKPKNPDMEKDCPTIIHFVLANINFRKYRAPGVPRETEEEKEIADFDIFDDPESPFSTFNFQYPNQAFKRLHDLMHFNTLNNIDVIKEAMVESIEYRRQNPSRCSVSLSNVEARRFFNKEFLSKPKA

[2] = tested on: PGE2 production in HaCaT cells; assay: A23187-induced PGE2 release in LPS-stimulated HaCaT cells (PGE2 EIA); format: cell-based; conditions: Homo sapiens, 0.5 h, read-out: IC50 for inhibiting A23187-induced PGE2 release
[3] = read-out: IC50 for IV PLA2 inhibition

Structure (SMILES) | inhibition at 5 µM [1] [%] | IC50 [1, 3] [µM] | also measured
CNc1ccc2oc(C[C@H]3O[C@@]4(CC[C@H]3C)O[C@H]([C@H](C)C(=O)c3ccc[nH]3)[C@H](C)C[C@H]4C)nc2c1C(=O)O [A23187] |  |  | toxic concentration by MTT assay (HaCaT cells): higher than 10 μM
CCCCC/C=C\C/C=C\C/C=C\C/C=C\CCCC(=O)C(F)(F)F [AACOCF3, reference compound] | 75 to 80 |  | IC50 [1]: 5.8 ± 1.9 µM
CC/C=C\C/C=C\C/C=C\C/C=C\C/C=C\C/C=C\CCC(=O)C(F)(F)F [DHACOCF3] | 30 | 21.3 ± 1.5 | 
CC/C=C\C/C=C\C/C=C\C/C=C\C/C=C\CCCC(=O)C(F)(F)F [EPACOCF3] | 75 to 80 | 2.9 ± 1.9 | IC50 ([2]; HaCaT): 0.18 µM
CC/C=C\C/C=C\C/C=C\C/C=C\C/C=C\CCSCC(=O)C(F)(F)F [EPASCOCF3] | 75 to 80 | 3.5 | 
CS(=O)(=O)Nc1ccc([N+](=O)[O-])cc1OC1CCCCC1 [NS-398, reference compound] |  |  | IC50 ([2]; LPS-stimulated HaCaT cells, inhibitor 0.2-25 μM for 30 min, FIG. 4): 0.24 µM
